Laboratory results: patent US7645738B2, “18-membered nitrobenzyl- and aminobenzyl-substituted cyclohexadepsipeptides for controlling endoparasites and a process for their preparation” (Bayer Animal Health GmbH, priority 2003, dated 2010)

Legend:
Haemonchus contortus = test: In vivo nematode test Haemonchus contortus/sheep; conditions: sheep experimentally infected with Haemonchus contortus; applied orally and/or intravenously as pure active compound; complete cessation of egg excretion after treatment
Procedure: Haemonchus contortus/sheep
Sheep which had been experimentally infected with Haemonchus contortus were treated after the prepotency time of the parasite had elapsed. The active compounds were applied orally and/or intravenously as pure active compound.
(§1) The degree of effectiveness is determined by quantitatively counting the worm eggs which have been excreted with the faeces before and after the treatment.
(§2) A complete cessation of egg excretion after the treatment means that the worms have been aborted or damaged to such an extent that they no longer produce eggs (dosis effectiva).
(§3) Active compounds tested and effective dosage rates (dosis effectiva) can be seen from the table which follows.

[1] = test system: Trichostrongylus colubriformis; test: In vivo nematode test Trichostrongylus colubriformis/sheep; conditions: sheep experimentally infected with Trichostrongylus colubriformis; applied orally and/or intravenously as pure active compound; complete cessation of egg excretion after treatment
Procedure: Trichostrongylus colubriformis/sheep
Sheep which had been experimentally infected with Trichostrongylus colubriformis were treated after the prepotency time of the parasite had elapsed. The active compounds were applied orally and/or intravenously as pure active compound.
as §1, §2, §3

log P value from HPLC = type: physicochemical; conditions: 0.1% phosphoric acid/acetonitrile gradient
Procedure: HPLC (0.1% phosphoric acid/acetonitrile; gradient: 90/10 (1) 5%/min, 5/95 (6); flow rate: 1.5 mil/min; UV: 210 nm): Rt=12.57 min; log P value 3.58.

SMILES | Effective dosage (dosis effectiva) (Haemonchus contortus) [mg/kg] | Effective dosage (dosis effectiva) [1] [mg/kg] | chromatographic logP (log P value from HPLC) | melting point [°C]
CCC(C)[C@H]1C(=O)O[C@H](Cc2ccc(N3CCOCC3)cc2)C(=O)N(C)[C@@H](C(C)CC)C(=O)O[C@H](C)C(=O)N(C)[C@@H](C)C(=O)O[C@H](C)C(=O)N1C (stereo partly drawn) [Example I-1, Cyclo(-N-methyl-L-alanyl-D-lactyl-N-methyl-L-isoleucyl-D-4-morpholino-phenyllactyl-N-methyl-L-isoleucyl-D-lactyl-)] | 0.10 | 0.25 | 3.58 | –
CCC(C)[C@H]1C(=O)O[C@H](Cc2ccc(NCCS(=O)(=O)CCO)cc2)C(=O)N(C)[C@@H](C(C)CC)C(=O)O[C@H](C)C(=O)N(C)[C@@H](C)C(=O)O[C@H](C)C(=O)N1C (stereo partly drawn) [Example I-2, Cyclo(-N-methyl-L-alanyl-D-lactyl-N-methyl-L-isoleucyl-D-4-(2-hydroxyethyl-sulphonyl-ethylamino-phenyl)lactyl-N-methyl-L-isoleucyl-D-lactyl-)] | 0.10 | – | – | –
CCC(C)[C@H]1C(=O)O[C@H](Cc2ccccc2)C(=O)N(C)[C@@H](C(C)CC)C(=O)O[C@H](C)C(=O)N(C)[C@@H](C)C(=O)O[C@H](C)C(=O)N1C (stereo partly drawn) [Example II-1, Cyclo(-N-methyl-L-alanyl-D-lactyl-N-methyl-L-isoleucyl-D-phenyllactyl-N-methyl-L-isoleucyl-D-lactyl-)] | – | – | 4.23 | –
CCC(C)[C@H]1C(=O)O[C@H](Cc2ccc([N+](=O)[O-])cc2)C(=O)N(C)[C@@H](C(C)CC)C(=O)O[C@H](C)C(=O)N(C)[C@@H](C)C(=O)O[C@H](C)C(=O)N1C (stereo partly drawn) [Example III-1, Cyclo(-N-methyl-L-alanyl-D-lactyl-N-methyl-L-isoleucyl-D-4-nitro-phenyllactyl-N-methyl-L-isoleucyl-D-lactyl-)] | – | – | – | 122 to 126
CCC(C)C1C(=O)OC(Cc2ccccc2N)C(=O)N(C)C(C(C)CC)C(=O)OC(C)C(=O)N(C)C(C)C(=O)OC(C)C(=O)N1C [Example IV-1, Cyclo(-N-methyl-L-alanyl-D-lactyl-N-methyl-L-isoleucyl-D-2-amino-phenyllactyl-N-methyl-L-isoleucyl-D-lactyl-)] | 0.05 | – | – | –
CC[C@H](C)[C@H]1C(=O)O[C@H](Cc2cccc(N)c2)C(=O)N(C)[C@@H]([C@@H](C)CC)C(=O)O[C@H](C)C(=O)N(C)[C@@H](C)C(=O)O[C@H](C)C(=O)N1C [Example IV-2, Cyclo(-N-methyl-L-alanyl-D-lactyl-N-methyl-L-isoleucyl-D-3-amino-phenyllactyl-N-methyl-L-isoleucyl-D-lactyl-)] | 0.05 | 0.25 | – | –
